Tests used:
Format in all cases: in vivo
[1] = test system: foxtail, giant (giant foxtail, Setaria faberi); assay: Test A postemergence, foxtail, giant; details: 10 days
From the text: (§1) Seeds of plant species selected from barnyardgrass (Echinochloa crus-galli), blackgrass (Alopecurus myosuroides), corn (Zea mays), foxtail, giant (giant foxtail, Setaria faberi), foxtail, green (green foxtail, Setaria viridis), goosegrass (Eleusine indica), kochia (Bassia scoparia), oat, wild (wild oat, Avena fatua), palmer amaranth (pigweed, palmer, Amaranthus palmeri), redroot pigweed (Amaranthus retroflexus), ragweed (common ragweed, Ambrosia artemisiifolia), ryegrass, Italian (Italian ryegrass, Lolium multiflorum), and soybean (Glycine max) were planted into a blend of loam soil and sand and treated preemergence with a directed soil spray using test chemicals formulated in a non-phytotoxic solvent mixture which included a surfactant.
(§2) At the same time, plants selected from these crop and weed species and also wheat (Triticum aestivum), galium (catchweed bedstraw, Galium aparine) and horseweed (Erigeron canadensis) were planted in pots containing the same blend of loam soil and sand and treated with postemergence applications of test chemicals formulated in the same manner. Plants ranged in height from 2 to 10 cm and were in the one- to two-leaf stage for the postemergence treatment. Treated plants and untreated controls were maintained in a greenhouse for 10 days, after which time all treated plants were compared to untreated controls and visually evaluated for injury. Plant response ratings, summarized in Table A, are based on a 0 to 100 scale where 0 is no effect and 100 is complete control. A dash (-) response means no test result.

[2] = test system: barnyardgrass (Echinochloa crus-galli); assay: Test A preemergence, barnyardgrass; details: 10 days
From the text: as §1, §2

[3] = test system: foxtail, giant (giant foxtail, Setaria faberi); assay: Test A preemergence, foxtail, giant; details: 0 to 100 scale, 10 days
From the text: as §1, §2

rice (Oryza sativa) = assay: Test B flooded paddy test, rice; details: 250 g ai/ha, Flood; visually evaluated after 10 to 14 days
Experimental: (§3) Plant species in the flooded paddy test selected from barnyardgrass (Echinochloa crus-galli), ducksalad (Heteranthera limosa), rice (Oryza sativa), and sedge, umbrella (small-flower umbrella sedge, Cyperus difformis) were grown to the 2-leaf stage for testing. At time of treatment, test pots were flooded to 3 cm above the soil surface, treated by application of test compounds directly to the paddy water, and then maintained at that water depth for the duration of the test. Treated plants and controls were maintained in a greenhouse for 10 to 14 days, after which time all species were compared to controls and visually evaluated. Plant response ratings, summarized in Table B, are based on a scale of 0 to 100 where 0 is no effect and 100 is complete control. A dash (-) response means no test result.

[4] = test system: redroot pigweed (Amaranthus retroflexus); assay: Test A preemergence, redroot pigweed; details: 0 to 100 scale, 10 days
From the text: as §1, §2

[5] = test system: ragweed (common ragweed, Ambrosia artemisiifolia); assay: Test A preemergence, ragweed; details: 0 to 100 scale, 10 days
From the text: as §1, §2

kochia (Bassia scoparia) [6] = assay: Test A preemergence, kochia; details: 0 to 100 scale, 10 days
From the text: as §1, §2

[7] = test system: ryegrass, Italian (Italian ryegrass, Lolium multiflorum); assay: Test A preemergence, ryegrass, Italian; details: 0 to 100 scale, 10 days
From the text: as §1, §2

[8] = test system: ducksalad (Heteranthera limosa); assay: Test B flooded paddy test, ducksalad; details: 250 g ai/ha, Flood; visually evaluated after 10 to 14 days
Experimental: as §3

[9] = test system: ryegrass, Italian (Italian ryegrass, Lolium multiflorum); assay: Test A postemergence, ryegrass, Italian; details: 10 days
From the text: as §1, §2

[10] = test system: galium (catchweed bedstraw, Galium aparine); assay: Test A postemergence, galium; details: 10 days
From the text: as §1, §2

[11] = test system: sedge, umbrella (small-flower umbrella sedge, Cyperus difformis); assay: Test B flooded paddy test, sedge, umbrella; details: 250 g ai/ha, Flood; visually evaluated after 10 to 14 days
Experimental: as §3

[12] = test system: barnyardgrass (Echinochloa crus-galli); assay: Test A postemergence, barnyardgrass; details: 10 days
From the text: as §1, §2

corn (Zea mays) = assay: Test A postemergence, corn; details: 10 days
From the text: as §1, §2

[13] = test system: wheat (Triticum aestivum); assay: Test A postemergence, wheat; details: 10 days
From the text: as §1, §2

[14] = test system: barnyardgrass (Echinochloa crus-galli); assay: Test B flooded paddy test, barnyardgrass; details: 250 g ai/ha, Flood; visually evaluated after 10 to 14 days
Experimental: as §3

[15] = test system: redroot pigweed (Amaranthus retroflexus); assay: Test A postemergence, redroot pigweed; details: 10 days
From the text: as §1, §2

kochia (Bassia scoparia) [16] = assay: Test A postemergence, kochia; details: 10 days
From the text: as §1, §2

[17] = test system: blackgrass (Alopecurus myosuroides); assay: Test A postemergence, blackgrass; details: 10 days
From the text: as §1, §2

[18] = test system: ragweed (common ragweed, Ambrosia artemisiifolia); assay: Test A postemergence, ragweed; details: 10 days
From the text: as §1, §2

[19] = 31 g ai/ha, postemergence, 0 to 100 scale (0 no effect, 100 complete control)
[20] = Postemergence, 125 g ai/ha, 0 to 100 scale
[21] = 125 g ai/ha, 0 to 100 scale (0 no effect, 100 complete control)
[22] = Postemergence, 31 g ai/ha, 0 to 100 scale

Compound: CC(=O)OCOc1c(C)nn(C)c(=O)c1-c1c2cc(C)ccc2cc2c(F)cc(C)cc12 [Compound 29]
- Plant response rating, Foxtail, Giant [1, 19]: 20
- Plant response rating, Foxtail, Giant [1, 20]: 20
- Plant response rating, Barnyardgrass ([2]; 31 g ai/ha, 0 to 100 scale): 0
- Plant response rating, Barnyardgrass [2, 21]: 70
- Plant response rating, Foxtail, Giant ([3]; 31 g ai/ha): 0
- Plant response rating, Foxtail, Giant ([3]; 125 g ai/ha): 20
- Plant response rating, Rice (0 to 100 scale where 0 is no effect and 100 is complete control) (rice (Oryza sativa)): 0
- Plant response rating, Pigweed, Redroot ([4]; 31 g ai/ha): 100
- Plant response rating, Pigweed, Redroot ([4]; 125 g ai/ha): 100
- Plant response rating, Ragweed ([5]; 31 g ai/ha): 90
- Plant response rating, Ragweed ([5]; 125 g ai/ha): 90
- Plant response rating, Kochia (kochia (Bassia scoparia) [6]; 31 g ai/ha): 20
- Plant response rating, Kochia (kochia (Bassia scoparia) [6]; 125 g ai/ha): 100
- Plant response rating, Ryegrass, Italian ([7]; 31 g ai/ha): 0
- Plant response rating, Ryegrass, Italian ([7]; 125 g ai/ha): 60
- Plant response rating, Ducksalad (0 to 100 scale where 0 is no effect and 100 is complete control) [8]: 95
- Plant response rating, Ryegrass, Italian [9, 19]: 40
- Plant response rating, Ryegrass, Italian [9, 20]: 60
- Plant response rating, Galium [10, 19]: 90
- Plant response rating, Galium [10, 20]: 100
- Plant response rating, Sedge, Umbrella (0 to 100 scale where 0 is no effect and 100 is complete control) [11]: 98
- Plant response rating, Barnyardgrass [12, 19]: 20
- Plant response rating, Barnyardgrass [12, 20]: 90
- Plant response rating, Corn (corn (Zea mays); [19]): 0
- Plant response rating, Corn (corn (Zea mays); [20]): 0
- Plant response rating, Wheat [13, 19]: 0
- Plant response rating, Wheat [13, 20]: 0
- Plant response rating, Barnyardgrass (0 to 100 scale where 0 is no effect and 100 is complete control) [14]: 55
- Plant response rating, Pigweed, Redroot [15, 19]: 100
- Plant response rating, Pigweed, Redroot [15, 20]: 100
- Plant response rating, Kochia (kochia (Bassia scoparia) [16]; [19]): 60
- Plant response rating, Kochia (kochia (Bassia scoparia) [16]; [20]): 100
- Plant response rating, Blackgrass [17, 19]: 0
- Plant response rating, Blackgrass [17, 20]: 20
- Plant response rating, Ragweed [18, 19]: 100
- Plant response rating, Ragweed [18, 20]: 100

Compound: CC(=O)OCOc1c(C)nn(C)c(=O)c1-c1c2ccccc2cc2ccccc12 [Compound 13]
- Plant response rating, Foxtail, Giant [1, 22]: 10
- Plant response rating, Foxtail, Giant [1, 20]: 60
- Plant response rating, Barnyardgrass ([2]; 31 g ai/ha, 0 to 100 scale): 0
- Plant response rating, Barnyardgrass [2, 21]: 30
- Plant response rating, Foxtail, Giant ([3]; 31 g ai/ha): 0
- Plant response rating, Foxtail, Giant ([3]; 125 g ai/ha): 20
- Plant response rating, Rice (0 to 100 scale where 0 is no effect and 100 is complete control) (rice (Oryza sativa)): 0
- Plant response rating, Pigweed, Redroot ([4]; 31 g ai/ha): 100
- Plant response rating, Pigweed, Redroot ([4]; 125 g ai/ha): 100
- Plant response rating, Kochia (kochia (Bassia scoparia) [6]; 31 g ai/ha): 0
- Plant response rating, Kochia (kochia (Bassia scoparia) [6]; 125 g ai/ha): 0
- Plant response rating, Ryegrass, Italian ([7]; 31 g ai/ha): 30
- Plant response rating, Ryegrass, Italian ([7]; 125 g ai/ha): 70
- Plant response rating, Ducksalad (0 to 100 scale where 0 is no effect and 100 is complete control) [8]: 0
- Plant response rating, Ryegrass, Italian [9, 19]: 70
- Plant response rating, Ryegrass, Italian [9, 20]: 100
- Plant response rating, Galium [10, 19]: 100
- Plant response rating, Galium [10, 20]: 100
- Plant response rating, Sedge, Umbrella (0 to 100 scale where 0 is no effect and 100 is complete control) [11]: 0
- Plant response rating, Barnyardgrass [12, 22]: 10
- Plant response rating, Barnyardgrass [12, 20]: 40
- Plant response rating, Corn (corn (Zea mays); [22]): 0
- Plant response rating, Corn (corn (Zea mays); [20]): 0
- Plant response rating, Wheat [13, 19]: 0
- Plant response rating, Wheat [13, 20]: 0
- Plant response rating, Barnyardgrass (0 to 100 scale where 0 is no effect and 100 is complete control) [14]: 0
- Plant response rating, Pigweed, Redroot [15, 19]: 100
- Plant response rating, Pigweed, Redroot [15, 20]: 100
- Plant response rating, Kochia (kochia (Bassia scoparia) [16]; [19]): 10
- Plant response rating, Kochia (kochia (Bassia scoparia) [16]; [20]): 50
- Plant response rating, Blackgrass [17, 22]: 0
- Plant response rating, Blackgrass [17, 20]: 40
- Plant response rating, Ragweed [18, 19]: 90
- Plant response rating, Ragweed [18, 20]: 100

— US12692238B2, “Substituted pyridazinone herbicides” (FMC CORPORATION, priority 2020, dated 2026)
